Measured values reported in the pKa sets of Baltruschat and Czodrowski (2020).

Details: acidic group

| SMILES | pKa |
| --- | --- |
| OB(O)c1cccc(O)c1 | 8.55 |
| CC[NH+]1CCC[C@@H]1CNC(=O)c1c(OC)ccc(Cl)c1O | 7.07 |
| C[n+]1c2ccccc2nc2c(O)cccc21 | 4.85 |
| Nc1nc[nH+]c2c1ncn2CCOCP(=O)(O)O | 1.22 |
| CC(=O)c1ccc(F)cc1 | 18.5 |
| CC1=NCCc2c1[nH]c1ccc([N+](=O)[O-])cc21 | 12.6 |
| CCc1c(C)nn(-c2ccccc2)c1O | 11.5 |
| CCN(CC)C(=S)NC(=O)c1ccc(Cl)cc1 | 8 |
| O/N=C/NO | 10.7 |
| [NH3+]CCCCCCCCCCC(=O)O | 4.62 |
| CCc1ccc(C(=O)/C=C/C(=O)O)cc1 | 3.38 |
| S=c1[nH]c2ccccc2o1 | 6.33 |
| Cc1ccc(C(=O)O)cc1C | 4.41 |
| CC(C)c1cccc2ccc(O)cc12 | 9.52 |
| O=C([O-])c1cccc([N+](=O)[O-])c1O | 10.3 |
| Cc1cc[nH]c1C(=O)O | 5.1 |
| COc1c(C)cccc1C(=O)O | 3.84 |
| COc1cc2c(cc1OC)[C@@H]1Cc3ccc(OC)c(O)c3[C@H](C2)N1C | 9.85 |
| C[n+]1cccc(/C=C(/O)c2ccccc2)c1 | 6.75 |
| Cc1ccc(/C=N/O)cc1 | 10.9 |
| C=C(C)[C@H]1C[NH2+][C@H](C(=O)[O-])[C@H]1CC(=O)O | 4.43 |
| CC1NCCc2c1[nH]c1ccc(Cl)cc21 (stereo not drawn) | 15.2 |
| C[NH+]1[C@H]2CC=C(C(=O)O)[C@@H]1CC2 | 3.93 |

| SMILES | pKa |
| --- | --- |
| Cc1cc(O)[nH+]c2c1CCO2 | 2.42 |
| O=Cc1ccc(O)cc1 | 7.53 |
| CCC1C(=O)C=C(C)OC1=O (stereo not drawn) | 5.3 |
| C[N+]1(CC(=O)O)CCCCC1 | 2.01 |
| Nc1ncnc2[nH]ncc12 | 10.8 |
| O=[PH]([O-])C(NCc1ccncc1)c1ccccc1O (stereo not drawn) | 11.9 |
| Oc1ccc(Cl)c(Cl)c1 | 8.58 |
| c1ccc(CNc2nnc(-c3ccccc3)s2)cc1 | 11.5 |
| O=S(Cc1ccccc1)c1ncn[nH]1 (stereo not drawn) | 7.38 |
| O=C(O)c1cccc([N+](=O)[O-])c1C(=O)c1ccccc1 | 2.87 |
| Oc1cccc(Cl)c1Cl | 7.71 |
| O=C(O)c1cc(=O)cc(-c2ccccc2)o1 | 1.51 |
| O=C(N/N=C/c1ccccc1[O-])c1ccncc1 | 11.3 |
| CC(=O)Nc1ccc(S(=O)(=O)Nc2nccc(C)n2)cc1 | 5.46 |
| COC(=O)/C=C(/C)O | 9.48 |
| N#CC1C=CN(Cc2cccc(F)c2)C=C1C(N)=O (stereo not drawn) | 0.68 |
| O=C([O-])c1cccc2ccc(O)cc12 | 9.6 |
| NC(=O)c1ccccc1C(=O)O | 3.75 |
| C[NH+](C)Cc1ccc(O)cc1 | 8.83 |
| O=C([O-])C(CO)NCc1ccccc1O (stereo not drawn) | 10.4 |
| CCc1cc2c(C)cc(=O)oc2cc1O | 8.01 |
| C[Si](C)(C)CCCCC(=O)O | 4.96 |
| Cc1ccc(O)cc1Cc1cc([N+](=O)[O-])ccc1[O-] | 10.3 |

| SMILES | pKa |
| --- | --- |
| O=C(O)c1ccc(O)cc1 | 4.57 |
| C[n+]1cccc2cc(S)ccc21 | 4.12 |
| Nc1ccc(S(=O)(=O)Nc2ncco2)cc1 | 6.5 |
| COC(=O)c1ccc(NC=S)cc1 | 10.9 |
| C[S+](C)c1cccc(O)c1 | 7.67 |
| CC(C)Cc1cnc(CC(C)C)c(O)[nH+]1 | 1.7 |
| O=S(=O)(NCc1ccccc1)c1ccc(Br)cc1 | 10.7 |
| CC(C)N(C(=S)S)C(C)C | 4.3 |
| N[n+]1ccccc1O | 2.1 |
| C[Si](C)(CCCCl)CCCC(=O)O | 4.98 |
| O=C(c1ccc(Cl)cc1)c1cc[nH]n1 | 11.9 |
| O=C1CCC(=O)N1 | 9.59 |
| O=C([O-])C1(C(=O)O)CC1 | 7.31 |
| Cc1cc(O)ccc1[N+](=O)[O-] | 7.65 |
| CC1(C)CC(=O)CC1=O | 4.2 |
| O=c1cccc(O)cc1O | 5.76 |
| [N-]=[N+]=Nc1ncnc2nc[nH]c12 | 7.6 |
| [O-]\N=C1/CCCC(=N\O)/C1=N/[O-] | 12.2 |
| C[n+]1ccc(C(=O)Cc2ccccc2)cc1 | 9.02 |
| CCCCCCCCCCCCCCC(=O)O | 5.01 |
| C[NH+](C)CC(=O)O | 1.99 |
| CCSC(O)O | 11.5 |

Same assay, conditions: basic group

| SMILES | pKa |
| --- | --- |
| N[C@@H]1C[C@@H]1N | 9.04 |
| O=[N+]([O-])c1cc(-c2ccccc2)nnc1NCCN1CCOCC1 | 6.56 |
| CC(=O)Nc1ccc(N)cc1 | 4.46 |
| NCCCc1ccccc1O | 9.51 |
| CN1C(=N)C(C)(C)c2ccccc21 | 9.25 |
| CCc1ccnc2c1ccc1c(CC)ccnc12 | 5.6 |
| C/C(=C\C(C)=N\c1ccccc1)Nc1ccccc1 | 7.22 |
| CCC(C)N(C)c1ccccc1 (stereo not drawn) | 6.03 |
| O=C([O-])c1ccncc1 | 4.9 |
| CNCCNCCN | 10.2 |
| Cc1cnc(C)c(C)[nH+]1 | -3.6 |
| ONc1ccc(Cl)cc1 | 2.58 |
| CN(C)CCCCCCCCNC(=O)/C=N/[O-] | 10.5 |
| ClCC1CC2CCN1CC2 (stereo not drawn) | 9.68 |
| CN(C)c1cccc([N+](C)(C)C)c1 | 2.6 |
| [S-]c1ccc2ccccc2n1 | 10.2 |
| CCCCCC/[NH+]=C/c1c(C)cnc(C)c1O | 3.39 |
| O=C([O-])c1ccc2ccccc2n1 | 4.97 |
| C[NH+](C)CCNc1c2ccccc2nc2cccc([N+](=O)[O-])c12 | 4.9 |
| CCCNc1ncnc2c1cnn2C | 4.25 |
| Nc1nc[nH+]c2c1ncn2CCOCP(=O)(O)O | -0.35 |
| CC1=NCCc2c1[nH]c1ccc([N+](=O)[O-])cc21 | 6.37 |
| COc1cccc(C(=O)N[C@H]2C[C@H]3CC[C@@H](C2)N3Cc2ccccc2)c1OC | 8.91 |
| CC1CC2CCN1CC2 (stereo not drawn) | 11.3 |
| Cc1cc([O-])[nH+]cn1 | 2.15 |
| CSc1nccc(C)n1 | 1.95 |
| Cc1ccno1 | 2.3 |

| SMILES | pKa |
| --- | --- |
| CC1C(=O)OC(C(C)(C)C)C1=O (stereo not drawn) | 4.84 |
| O=C([O-])[C@@H]1CSCN1 | 6.14 |
| CC(=O)Nc1c(C)n(C)n(-c2ccccc2)c1=O | 0.18 |
| O/N=C/NO | 4.05 |
| CCCNCCNCCC | 10.3 |
| C[NH+]1CCN(C(c2ccccc2)c2ccc(Cl)cc2)CC1 (stereo not drawn) | 2.43 |
| Cc1cnnc(C)c1 | 4.11 |
| NCCNCc1ccccc1 | 9.41 |
| COc1ccc(N)cc1CN | 9.77 |
| CC(C)(C)c1ccncc1 | 5.95 |
| COc1ccc(-c2cnc(-c3ccccc3)o2)cc1 | 1.05 |
| N#CC1CC2CCN1CC2 (stereo not drawn) | 5.85 |
| CC1(C)CC(=O)C(C)(C)N1 | 7.1 |
| CCCCCCCN | 10.3 |
| CCCSS/C(CCO)=C(/C)N(C=O)Cc1cnc(C)nc1N | 5.52 |
| COc1ccc(-c2ncc(-c3ccccc3)o2)cc1 | 1.25 |
| Nc1cc[n+]([O-])cc1 | 3.61 |
| Cc1ccc(C)nc1 | 6.4 |
| ClC1CC2CCN1CC2 (stereo not drawn) | 6.98 |
| COc1ccc(CN)cc1N | 9.77 |
| CC([NH3+])C/C(N)=N/O (stereo not drawn) | 3.75 |
| c1ccc2cc(NCC[NH2+]c3ccc4ccccc4c3)ccc2c1 | 1.8 |
| CN1C[C@H](C(=O)[O-])C[C@@]2(O)c3cccc4[nH]cc(c34)C[C@@H]12 | 8.33 |
| CN(C)CCCCC(=O)Oc1ccc([N+](=O)[O-])cc1 | 9.9 |
| NCC(=O)C[NH3+] | 6.89 |
| CC1=Nc2ccc(C)cc2N=C(C)C1 | 4 |
| CCc1ccc([C@@H]2CCC[NH+]2C)cn1 | 3.69 |

| SMILES | pKa |
| --- | --- |
| Nc1ccc2nccnc2c1 | 2.95 |
| Nc1ncnc2[nH]ncc12 | 4.59 |
| O=C([O-])CCc1c[nH]cn1 | 7.55 |
| CNN | 7.87 |
| CN(C)CCOC(c1ccccc1)c1ccc(Br)cc1 (stereo not drawn) | 8.64 |
| CCN(CC)CCCC#N | 9.29 |
| C[NH+](C)CCC/N=C(\c1ccccc1)c1cccc2ccccc12 | 4.16 |
| O=[PH]([O-])C(NCc1ccncc1)c1ccccc1O (stereo not drawn) | 8.05 |
| CCN(CC)CC(=O)NC1CCCCC1 | 8.21 |
| COc1ccncc1 | 6.65 |
| c1cc(N2CCOCC2)ccn1 | 8.79 |
| c1cncc(-c2[nH]c3ccccc3[nH+]2)c1 | 1.56 |
| Nc1ccc(S(=O)(=O)Nc2ccc[nH+]c2)cc1 | 1.59 |
| Nc1ccc2cnccc2c1 | 7.17 |
| Cc1cc(Br)cc(C)c1N(C)C | 4.36 |
| CN1C(=N)Cc2ccccc21 | 9.6 |
| Cc1ccccc1CN | 9.23 |
| CC(=O)Nc1ccc(S(=O)(=O)Nc2nccc(C)n2)cc1 | 0.9 |
| O=C([O-])C(CO)NCc1ccccc1O (stereo not drawn) | 8.22 |
| c1ccc2c(c1)CNCCC[NH2+]Cc1ccccc1OCCO2 | 7.82 |
| CC[C@]12CCCN3CC[C@@]4(c5cccc(OC)c5N(C(C)=O)[C@H]4CC1)[C@@H]32 | 7.57 |
| CS[C@H]1CCC[C@@H]1N(C)C | 8.85 |
| OCCN1CC[NH2+]CC1 | 5.47 |
| CC(C)(C)N | 10.7 |
| c1ccc(CN2CCCC2)cc1 | 9.51 |
| O=C([O-])[C@@H]1O[C@H](Oc2cnc3ccccc3c2)[C@@H](O)[C@H](O)[C@H]1O | 3.95 |
| CCN1[C@@H](C)[C@@H]1C (stereo partly drawn) | 9.41 |

| SMILES | pKa |
| --- | --- |
| NC(Cc1ccncc1)C(=O)[O-] (stereo not drawn) | 9.22 |
| c1ccc(-c2ccnc3c2ccc2c(-c4ccccc4)ccnc23)cc1 | 4.84 |
| C(=N\c1ccccc1)/Nc1ccccc1 | 6.3 |
| OCCCCCc1cccnc1 | 5.72 |
| Nc1cccc(-c2cccc(N)n2)n1 | 6.7 |
| CC(C)(C)CNc1ccccc1 | 4.17 |
| CC(C=C(c1cccs1)c1cccs1)N(C)C (stereo not drawn) | 8.95 |
| C[C@H](CCCN)[C@H]1CC[C@H]2[C@@H]3CC[C@@H]4C[C@H](O)CC[C@]4(C)[C@H]3CC[C@]12C | 9.7 |
| CCN(CC)CCCCCCCC(C)Nc1c2ccc(Cl)cc2nc2ccc(OC)cc12 (stereo not drawn) | 10.4 |
| CC[n+]1c([O-])ccnc1[S-] | 8.65 |
| O=C([O-])C1CCCN1 (stereo not drawn) | 10.6 |
| Nc1ccc(N)cc1 | 6.16 |
| Cc1cc(C)c(C[NH3+])cc1N | 4.57 |
| COc1ccc(-c2nc3cnccc3[nH]2)c(OC)c1 | 6.49 |
| CC[NH+](CC)CCNc1nc(C)cc(Nc2ccc(Cl)cc2)n1 | 6.69 |
| N#Cc1cc(-c2ccccc2)nnc1NCC[NH+]1CCOCC1 | 0.5 |
| CC1=C[C@H]2CC[C@@H](O)[C@H]2N1C | 11.7 |
| CC(=O)Nc1ccncc1 | 5.87 |
| CC1CC(=O)CC(=O)O1 (stereo not drawn) | 5.1 |
| COc1cc([N+](=O)[O-])cc(C(=O)N[C@@H]2C[C@H]3CC[C@@H](C2)N3Cc2ccccc2)c1OC | 8.7 |
| CCN(CC)CCNc1nc(C)nc(Nc2ccc(Cl)cc2)n1 | 9.3 |
| N[C@@H](CCC(=O)[O-])C(=O)[O-] | 9.33 |
| N[C@H]1CONC1=O | 7.53 |
| OCCN(CCc1nnn[n-]1)CCc1nnn[n-]1 | 8.9 |
